Experimental data taken from publication PMC12621043, “Un-LOK-ing a New Approach for Conformational Selective Targeting of STK10 (LOK)” (ACS Medicinal Chemistry Letters, 2025).
“And” between values parts separate entries of the source, which are not always exact repeats. Equal values may be shown once.

Tests used:
FLT1A = biological target: T1, FLT1A (Homo sapiens, UniProt P17948); experiment: DSF Tm panel; assay type: binding; details: 10 μM compound
T1 construct: purchased in-house DSF kinase panel (SGC-style construct names; the trailing letter is the construct ID)
T1 sequence (P17948 801-1158): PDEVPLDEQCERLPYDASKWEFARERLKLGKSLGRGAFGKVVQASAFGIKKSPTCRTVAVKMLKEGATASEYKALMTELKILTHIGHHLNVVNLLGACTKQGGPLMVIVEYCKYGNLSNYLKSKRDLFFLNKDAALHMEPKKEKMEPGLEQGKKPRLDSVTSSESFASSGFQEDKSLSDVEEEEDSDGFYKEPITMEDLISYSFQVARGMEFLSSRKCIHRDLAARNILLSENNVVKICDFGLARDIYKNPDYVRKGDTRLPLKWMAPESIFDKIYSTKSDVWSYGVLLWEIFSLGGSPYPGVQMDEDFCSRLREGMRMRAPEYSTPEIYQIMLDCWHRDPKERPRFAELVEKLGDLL

WNK1A = biological target: T2, WNK1A (Homo sapiens, UniProt Q9H4A3); experiment: DSF Tm panel; assay type: binding; details: 10 μM compound
T2 construct: purchased in-house DSF kinase panel (SGC-style construct names; the trailing letter is the construct ID)

MAPK8B = biological target: T3, MAPK8B (Homo sapiens, UniProt P45983); experiment: DSF Tm panel; assay type: binding; details: 10 μM compound
T3 construct: purchased in-house DSF kinase panel (SGC-style construct names; the trailing letter is the construct ID)

EPHA4A = biological target: T4, EPHA4A (Homo sapiens, UniProt P54764); experiment: DSF Tm panel; assay type: binding; details: 10 μM compound
T4 construct: purchased in-house DSF kinase panel (SGC-style construct names; the trailing letter is the construct ID)
T4 sequence (P54764 621-882): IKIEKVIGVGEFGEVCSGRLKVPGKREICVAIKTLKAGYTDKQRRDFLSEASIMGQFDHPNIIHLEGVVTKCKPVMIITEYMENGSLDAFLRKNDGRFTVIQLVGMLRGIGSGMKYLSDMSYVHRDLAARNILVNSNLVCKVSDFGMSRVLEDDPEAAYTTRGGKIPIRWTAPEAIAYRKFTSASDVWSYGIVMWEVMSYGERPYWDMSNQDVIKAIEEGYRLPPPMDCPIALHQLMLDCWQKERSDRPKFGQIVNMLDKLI

RPS6KA5A = experiment: DSF Tm panel; assay type: binding; details: 10 μM compound
Experimental: The synthesized urea-based derivatives were evaluated in a panel of kinases by differential scanning fluorescence (DSF) to investigate their selectivity profile. A positive ΔT m in the DSF assay indicates stabilization of the protein upon ligand binding in comparison to its apo state, with higher thermal shifts generally correlating with stronger binding. For this purpose, we used our internal kinase selectivity panel (∼90 kinases) along with staurosporine as a positive control. […]
was performed as previously described.[1,2] Briefly, recombinant protein kinase domains at a concentration of 2 μM were mixed with 10 μM compound in a buffer containing 20 mM HEPES, […]
probe (1 µl per mL). Subsequently, temperature-dependent protein unfolding profiles were […]
The temperature was raised with a step rate of 3 °C per minute. […]
inflection point of the transition curve. […]
previously.[3] In brief, STK10, STK3, STK4 and SLK were obtained as plasmids cloned in […]
Plasmids were transfected into
KD concentration taken from TracerDB (tracerdb.org)[4] were pipetted into white 384-well

NEK7A = biological target: T5, NEK7A (Homo sapiens, UniProt Q8TDX7); experiment: DSF Tm panel; assay type: binding; details: 10 μM compound
T5 construct: purchased in-house DSF kinase panel (SGC-style construct names; the trailing letter is the construct ID)

FECHHSB = biological target: T6, FECHHSB (Homo sapiens, UniProt P22830); experiment: DSF Tm panel; assay type: binding; details: 10 μM compound
T6 construct: purchased in-house DSF kinase panel (SGC-style construct names; the trailing letter is the construct ID)

SLK = system: SLK; design: method as in Serafim et al.; details: Figure 1, previous published dual STK10/SLK inhibitors, ref Serafim et al.; read-out: SLK cellular IC50; cited from earlier work
STK10 [1] = biological target: T7, STK10 (Homo sapiens, UniProt O94804); details: Figure 1, previous published dual STK10/SLK inhibitors, ref Serafim et al.; read-out: STK10 cellular IC50; cited from earlier work
T7 construct: purchased in-house DSF kinase panel (SGC-style construct names; the trailing letter is the construct ID)

STK10 [2] = biological target: T7, STK10; experiment: Surface plasmon resonance (SPR); assay type: binding; details: 1:1 Langmuir kinetic model, 25 °C
Experimental: each well using a multichannel pipette (Eppendorf). Plates were incubated at 37 °C for 1 hour.
For substrate addition, 5 μL of 8 μM AQT0505 peptide was added to each well using the Mantis […]
temperature for an additional hour.
Fluorescence of the SOX-peptide was measured after excitation at 360 nm and emission at 487 nm using a PHERAstar plate reader (BMG Labtech). IC50 values were calculated by nonlinear regression of log[inhibitor] versus normalized response using GraphPad Prism 8 (www.graphpad.com, RRID:SCR_002798).
SPR. Surface plasmon resonance (SPR) experiments were conducted using a Biacore T200 instrument equipped with a Series S Sensor Chip NTA (Cytiva) at 25 °C. His-STK10 was immobilized at a flow rate of 10 µL/min on flow channels (FC) 2 while FC1 served as a blank reference without protein. Nickel loading of the chip was achieved by injecting 500 µM NiCl₂.
To activate the chip surface for covalent coupling, 483 mM EDC and 10 mM NHS were mixed in a 1:1 (v/v) ratio and injected. […]
Compound 23 was measured in duplicates using Multi-Cycle Kinetics, with 10 concentrations ranging from 0.01 µM to 5 μM injected across FC1 and FC2 at 30 µL/min for 150 s. Interaction data was FC1-referenced, blank-subtracted, solvent-corrected, and analyzed using Biacore T200 Evaluation Software version 3.2.1. […]

T5 sequence (Q8TDX7 whole entry): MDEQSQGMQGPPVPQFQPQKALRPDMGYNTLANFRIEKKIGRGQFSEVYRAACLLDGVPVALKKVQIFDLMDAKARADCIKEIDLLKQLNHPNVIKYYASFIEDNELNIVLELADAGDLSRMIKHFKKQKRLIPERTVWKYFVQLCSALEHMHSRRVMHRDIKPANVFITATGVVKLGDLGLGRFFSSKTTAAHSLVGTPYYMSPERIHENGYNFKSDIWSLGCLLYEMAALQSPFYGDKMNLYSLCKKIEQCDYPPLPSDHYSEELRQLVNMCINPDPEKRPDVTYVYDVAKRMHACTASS
T3 sequence (P45983 1-364): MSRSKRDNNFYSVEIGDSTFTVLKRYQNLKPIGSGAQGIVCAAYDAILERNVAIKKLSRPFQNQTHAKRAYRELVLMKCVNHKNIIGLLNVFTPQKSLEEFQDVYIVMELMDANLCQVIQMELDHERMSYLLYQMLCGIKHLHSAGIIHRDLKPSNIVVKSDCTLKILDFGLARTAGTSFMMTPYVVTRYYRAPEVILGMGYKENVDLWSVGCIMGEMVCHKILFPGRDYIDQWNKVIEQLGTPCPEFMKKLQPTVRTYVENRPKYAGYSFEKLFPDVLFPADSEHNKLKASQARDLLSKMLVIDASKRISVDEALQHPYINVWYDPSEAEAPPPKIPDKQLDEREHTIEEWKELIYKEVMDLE
T7 sequence (O94804 18-317 limits assumed): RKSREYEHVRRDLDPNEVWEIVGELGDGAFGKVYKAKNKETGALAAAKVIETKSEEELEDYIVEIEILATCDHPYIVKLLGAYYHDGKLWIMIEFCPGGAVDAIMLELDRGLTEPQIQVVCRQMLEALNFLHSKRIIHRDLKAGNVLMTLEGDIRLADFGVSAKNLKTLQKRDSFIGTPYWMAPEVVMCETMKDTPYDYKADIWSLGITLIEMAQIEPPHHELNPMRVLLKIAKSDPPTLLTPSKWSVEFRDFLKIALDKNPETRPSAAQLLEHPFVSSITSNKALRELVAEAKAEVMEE
T2 sequence (Q9H4A3 206-483): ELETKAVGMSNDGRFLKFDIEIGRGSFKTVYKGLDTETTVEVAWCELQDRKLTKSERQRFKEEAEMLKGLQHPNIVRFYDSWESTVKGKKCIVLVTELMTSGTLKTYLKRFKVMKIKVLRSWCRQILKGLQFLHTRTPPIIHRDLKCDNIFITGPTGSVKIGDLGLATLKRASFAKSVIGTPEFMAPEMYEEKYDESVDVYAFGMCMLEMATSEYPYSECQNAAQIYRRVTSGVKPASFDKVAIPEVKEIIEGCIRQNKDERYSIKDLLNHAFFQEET
T6 sequence (P22830 55-423): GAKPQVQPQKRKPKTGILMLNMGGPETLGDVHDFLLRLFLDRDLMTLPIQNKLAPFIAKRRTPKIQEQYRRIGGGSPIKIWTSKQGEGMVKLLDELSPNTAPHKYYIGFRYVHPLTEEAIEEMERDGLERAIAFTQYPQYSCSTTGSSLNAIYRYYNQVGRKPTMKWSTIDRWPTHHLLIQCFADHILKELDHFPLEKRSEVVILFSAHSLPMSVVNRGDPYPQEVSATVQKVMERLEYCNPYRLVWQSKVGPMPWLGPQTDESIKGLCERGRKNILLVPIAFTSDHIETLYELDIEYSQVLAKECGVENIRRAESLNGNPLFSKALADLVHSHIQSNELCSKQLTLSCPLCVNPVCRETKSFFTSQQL

Row | Structure (SMILES) | ΔTm at 10 µM (FLT1A) | ΔTm at 10 µM (WNK1A) | ΔTm at 10 µM (MAPK8B) | ΔTm at 10 µM (EPHA4A) | ΔTm at 10 µM (NEK7A) | ΔTm RPS6KA5A (RPS6KA5A) | also measured
1 | O=C(NCc1ccc(Cl)cc1)Nc1ccc2cc1OCCOCCNc1ccn3ncc-2c3n1 [compound 19] | 3.4 °C | -0.2 °C |  |  |  |  | 
2 | COc1cc(CNC(=O)Nc2ccc3cc2OCCOCCNc2ccn4ncc-3c4n2)ccc1F [compound 33] |  |  | 0.9 °C | 0.4 °C | 1.4 °C | 0,7 °C | 
3 | COc1ccccc1CNC(=O)Nc1ccc2cc1OCCOCCNc1ccn3ncc-2c3n1 [compound 29] |  |  | 1.1 °C | 0.3 °C | 1.7 °C | 0,2 °C | ΔTm at 10 µM (FECHHSB): -3.1 °C
4 | O=C(NCc1ccccc1)Nc1ccc2cc1OCCOCCNc1ccn3ncc-2c3n1 [compound 16] | 4.7 °C | 0 °C |  |  |  |  | 
5 | Cc1ccc(F)cc1CNC(=O)Nc1ccc2cc1OCCOCCNc1ccn3ncc-2c3n1 [compound 26] |  |  | 0.5 °C | 0.3 °C | 0.9 °C | 0,7 °C | 
6 | COc1ccc(CNC(=O)Nc2ccc3cc2OCCOCCNc2ccn4ncc-3c4n2)cc1F [compound 32] |  |  | 0.8 °C | 0.4 °C | 1.3 °C | 1,1 °C | 
7 | C[C@H](NC(=O)Nc1ccc2cc1OCCOCCNc1ccn3ncc-2c3n1)c1ccccc1 [compound 34] |  |  | 0.9 °C | 0.3 °C | 0.9 °C | 0,6 °C | 
8 | O=C(NCc1ccccc1C(F)(F)F)Nc1ccc2cc1OCCOCCNc1ccn3ncc-2c3n1 [compound 27] |  |  | 0.5 °C | 0.3 °C | 2 °C | 1,3 °C | 
9 | COc1ccc(CNC(=O)Nc2ccc3cc2OCCOCCNc2ccn4ncc-3c4n2)cc1 [compound 31] |  |  | 1.1 °C | 0.4 °C | 0.6 °C |  | IC50 (SLK): 700 nM; IC50 (STK10 [1]): > 1000 nM and 1400 nM
10 | CN1CCN(C(=O)Nc2ccc3cc2OCCOCCNc2ccn4ncc-3c4n2)CC1 [compound 35] | 4.4 °C | 0.4 °C |  |  |  |  | 
11 | O=C(NCc1ccc(C(F)(F)F)cc1)Nc1ccc2cc1OCCOCCNc1ccn3ncc-2c3n1 [compound 28] |  |  | 0.9 °C | 0.5 °C | 2.3 °C | 1,5 °C | 
12 | COc1cccc(CNC(=O)Nc2ccc3cc2OCCOCCNc2ccn4ncc-3c4n2)c1 [compound 30] |  |  | 1.2 °C | 0.3 °C | 1 °C | 0,3 °C | ΔTm at 10 µM (FECHHSB): -3.8 °C

Further lines, with some results ahead:

Row | ΔTm at 10 µM (FLT1A) | ΔTm at 10 µM (WNK1A) | ΔTm at 10 µM (MAPK8B) | ΔTm at 10 µM (EPHA4A) | ΔTm at 10 µM (NEK7A) | Structure (SMILES) | ΔTm RPS6KA5A (RPS6KA5A) | also measured
13 | 2.1 °C | 0.5 °C |  |  |  | O=C(NCc1ccccc1Cl)Nc1ccc2cc1OCCOCCNc1ccn3ncc-2c3n1 [compound 17] |  | 
14 | 2.6 °C | -0.2 °C |  |  |  | O=C(NCc1ccc(Cl)cc1F)Nc1ccc2cc1OCCOCCNc1ccn3ncc-2c3n1 [compound 21] |  | 
15 | 1.4 °C | 0.4 °C |  |  |  | O=C(NCc1ccc(Cl)cc1Cl)Nc1ccc2cc1OCCOCCNc1ccn3ncc-2c3n1 [compound 20] |  | 
16 | 3.7 °C | 0.09 °C |  |  |  | O=C(NCc1cccc(Cl)c1)Nc1ccc2cc1OCCOCCNc1ccn3ncc-2c3n1 [compound 18] |  | 
17 |  |  | 0.6 °C | 0.2 °C | 1.6 °C | Cc1cc(Br)ccc1CNC(=O)Nc1ccc2cc1OCCOCCNc1ccn3ncc-2c3n1 [compound 24] | 1,0 °C | 
18 | 2 °C | 1.6 °C |  |  |  | Cc1cc(Cl)ccc1CNC(=O)Nc1ccc2cc1OCCOCCNc1ccn3ncc-2c3n1 [compound 23] |  | Kd (STK10 [2]): 365 ± 45 nM
